From patent publication US20170050957A1, “4-AMINO-6-(HETEROCYCLIC)PICOLINATES AND 6-AMINO-2-(HETEROCYCLIC)PYRIMIDINE-4-CARBOXYLATES AND THEIR USE AS HERBICIDES” (Dow AgroSciences LLC, priority 2013, published 2017)
Like-named read-outs stand apart in the source and are kept apart here.

Key:
[1] = test system: Key Grass and Sedge Weeds as well as Grass Crops; experiment: Post-emergent Test II herbicidal activity (Table 16); format: in vivo; details: post-emergence, 336 h; for pest or weed control at 35 g/ha: 35 g ai/ha; for pest or weed control at 70 g/ha: 70 g ai/ha; for pest or weed control at 140 g/ha: 140 g ai/ha
Method: (§1) Post-emergent Test II: Seeds or nutlets of the desired test plant species were planted in Sun Gro Metro-Mix® 360 planting mixture, which typically has a pH of 6.0 to 6.8 and an organic matter content of about 30 percent, in plastic pots with a surface area of 64 square centimeters. When required to ensure good germination and healthy plants, a fungicide treatment and/or other chemical or physical treatment was applied. The plants were grown for 7-21 d in a greenhouse with an approximate 15 h photoperiod which was maintained at about 23-29° C. during the day and 22-28° C. during the night. Nutrients and water were added on a regular basis and supplemental lighting was provided with overhead metal halide 1000-Watt lamps as necessary. The plants were employed for testing when they reached the first or second true leaf stage.
(§2) A weighed amount, determined by the highest rate to be tested, of each test compound was placed in a 25 mL glass vial and was dissolved in 4 mL of a 97:3 v/v mixture of acetone and DMSO to obtain concentrated stock solutions. […] The concentrated stock solutions obtained were diluted with 20 mL of an aqueous mixture containing acetone, water, isopropyl alcohol, DMSO, Atplus 411F crop oil concentrate, and Triton® X-155 surfactant in a 48.5:39:10:1.5:1.0:0.02 v/v ratio to obtain spray solutions containing the highest application rates. Additional application rates were obtained by serial dilution of 12 mL of the high rate solution into a solution containing 2 mL of 97:3 v/v mixture of acetone and DMSO and 10 mL of an aqueous mixture containing acetone, water, isopropyl alcohol, DMSO, Atplus 411F crop oil concentrate, and Triton X-155 surfactant in a 48.5:39:10:1.5:1.0:0.02 v/v ratio to obtain 1/2×, 1/4×, 1/8× and 1/16× rates of the high rate. Compound requirements are based upon a 12 mL application volume at a rate of 187 liters per hectare (L/ha). Formulated compounds were applied to the plant material with an overhead Mandel track sprayer equipped with 8002E nozzles calibrated to deliver 187 L/ha over an application area of 0.503 square meters at a spray height of 18 inches (43 cm) above the average plant canopy height. Control plants were sprayed in the same manner with the solvent blank.
(§3) The treated plants and control plants were placed in a greenhouse as described above and watered by subirrigation to prevent wash-off of the test compounds. After 14 d, the condition of the test plants as compared with that of the untreated plants was determined visually and scored on a scale of 0 to 100 percent where 0 corresponds to no injury and 100 corresponds to complete kill.

[2] = test system: Key Broadleaf Weed and Crop Species; experiment: Post-emergent Test II herbicidal activity (Table 15); format: in vivo; details: post-emergence, 336 h, 14 d; for pest or weed control at 35 g/ha: 35 g ai/ha; for pest or weed control at 70 g/ha: 70 g ai/ha; for pest or weed control at 140 g/ha: 140 g ai/ha
Method: as §1, §2, §3

[3] = Cyperus esculentus, yellow nutsedge (Cyperus esculentus), 14 d, read-out: Visual Growth Reduction (%) 14 Days After Application, CYPES
[4] = Echinochloa crus-galli, barnyardgrass (Echinochloa crus-galli), 14 d, read-out: Visual Growth Reduction (%) 14 Days After Application, ECHCG
[5] = Oryza sativa, rice (Oryza sativa), 14 d, read-out: Visual Growth Reduction (%) 14 Days After Application, ORYSA
[6] = Setaria faberi, giant foxtail (Setaria faberi), 14 d, read-out: Visual Growth Reduction (%) 14 Days After Application, SETFA
[7] = Triticum aestivum, wheat, spring (Triticum aestivum), 14 d, read-out: Visual Growth Reduction (%) 14 Days After Application, TRZAS
[8] = Zea mays, maize, corn (Zea mays), 14 d, read-out: Visual Growth Reduction (%) 14 Days After Application, ZEAMX
[9] = Abutilon theophrasti, velvetleaf (Abutilon theophrasti), read-out: Visual Growth Reduction (%) 14 Days After Application, ABUTH
[10] = Amaranthus retroflexus, redroot pigweed (Amaranthus retroflexus), read-out: Visual Growth Reduction (%) 14 Days After Application, AMARE
[11] = Brassica napus, oilseed rape, canola (Brassica napus), read-out: Visual Growth Reduction (%) 14 Days After Application, BRSNN
[12] = Chenopodium album, lambsquarters (Chenopodium album), read-out: Visual Growth Reduction (%) 14 Days After Application, CHEAL
[13] = Euphorbia heterophylla, wild poinsettia (Euphorbia heterophylla), read-out: Visual Growth Reduction (%) 14 Days After Application, EPHHL
[14] = Helianthus annuus, sunflower (Helianthus annuus), read-out: Visual Growth Reduction (%) 14 Days After Application, HELAN

COC(=O)c1nc(-c2ccc3ccn([Si](C(C)C)(C(C)C)C(C)C)c3c2F)c(F)c(N)c1Cl [Compound 1.12, methyl 4-amino-3-chloro-5-fluoro-6-(7-fluoro-1-(triisopropylsilyl)-1H-indol-6-yl)picolinate]
melting point: 181 to 182 °C | pest or weed control at 35 g/ha [1, 3]: 0 to 29% | pest or weed control at 70 g/ha [1, 3]: 0 to 29% | pest or weed control at 140 g/ha [1, 3]: 0 to 29% | pest or weed control at 35 g/ha [1, 4]: 0 to 29% | pest or weed control at 70 g/ha [1, 4]: 0 to 29% | pest or weed control at 140 g/ha [1, 4]: 85 to 94% | pest or weed control at 35 g/ha [1, 5]: 0 to 29% | pest or weed control at 70 g/ha [1, 5]: 0 to 29% | pest or weed control at 140 g/ha [1, 5]: 0 to 29% | pest or weed control at 35 g/ha [1, 6]: 75 to 84% | pest or weed control at 70 g/ha [1, 6]: 60 to 74% | pest or weed control at 140 g/ha [1, 6]: 75 to 84% | pest or weed control at 35 g/ha [1, 7]: 45 to 59% | pest or weed control at 70 g/ha [1, 7]: 0 to 29% | pest or weed control at 140 g/ha [1, 7]: 0 to 29% | pest or weed control at 35 g/ha [1, 8]: 0 to 29% | pest or weed control at 70 g/ha [1, 8]: 0 to 29% | pest or weed control at 140 g/ha [1, 8]: 0 to 29%

Nc1c(F)c(-c2ccc3ccoc3c2)nc(C(=O)O)c1Cl [Compound 2.08]
melting point: 168 to 170 °C | pest or weed control at 35 g/ha [1, 3]: 0 to 29% | pest or weed control at 70 g/ha [1, 3]: 0 to 29% | pest or weed control at 140 g/ha [1, 3]: 0 to 29% | pest or weed control at 35 g/ha [1, 4]: 85 to 94% | pest or weed control at 70 g/ha [1, 4]: 85 to 94% | pest or weed control at 140 g/ha [1, 4]: 95 to 100% | pest or weed control at 35 g/ha [1, 5]: 0 to 29% | pest or weed control at 70 g/ha [1, 5]: 30 to 44% | pest or weed control at 140 g/ha [1, 5]: 30 to 44% | pest or weed control at 35 g/ha [1, 6]: 45 to 59% | pest or weed control at 70 g/ha [1, 6]: 60 to 74% | pest or weed control at 140 g/ha [1, 6]: 85 to 94% | pest or weed control at 35 g/ha [1, 7]: 0 to 29% | pest or weed control at 70 g/ha [1, 7]: 0 to 29% | pest or weed control at 140 g/ha [1, 7]: 0 to 29% | pest or weed control at 35 g/ha [1, 8]: 45 to 59% | pest or weed control at 70 g/ha [1, 8]: 60 to 74% | pest or weed control at 140 g/ha [1, 8]: 60 to 74%

COC(=O)c1nc(-c2ccc3[nH]nnc3c2)cc(N)c1Cl [Compound 9.01]
melting point: 129 to 133 °C | pest or weed control at 140 g/ha ([1]; Cyperus esculentus, yellow nutsedge (Cyperus esculentus), 14 days after application, read-out: Visual Growth Reduction (%) 14 Days After Application CYPES): 95 to 100% | pest or weed control at 140 g/ha ([1]; Echinochloa crus-galli, barnyardgrass (Echinochloa crus-galli), 14 days after application, read-out: Visual Growth Reduction (%) 14 Days After Application ECHCG): 95 to 100% | pest or weed control at 140 g/ha ([1]; Oryza sativa, rice (Oryza sativa), 14 days after application, read-out: Visual Growth Reduction (%) 14 Days After Application ORYSA): 0 to 29% | pest or weed control at 140 g/ha ([1]; Setaria faberi, giant foxtail (Setaria faberi), 14 days after application, read-out: Visual Growth Reduction (%) 14 Days After Application SETFA): 0 to 29% | pest or weed control at 140 g/ha ([1]; Triticum aestivum, wheat, spring (Triticum aestivum), 14 days after application, read-out: Visual Growth Reduction (%) 14 Days After Application TRZAS): 0 to 29% | pest or weed control at 140 g/ha ([1]; Zea mays, maize, corn (Zea mays), 14 days after application, read-out: Visual Growth Reduction (%) 14 Days After Application ZEAMX): 0 to 29%

Nc1c(Cl)c(C(=O)O)nc(-c2ccc3cc[nH]c3c2)c1Cl [Compound 1.06]
melting point: 160 to 164 °C | pest or weed control at 35 g/ha [2, 9]: 0 to 29% | pest or weed control at 70 g/ha [2, 9]: 0 to 29% | pest or weed control at 140 g/ha [2, 9]: 0 to 29% | pest or weed control at 35 g/ha [2, 10]: 95 to 100% | pest or weed control at 70 g/ha [2, 10]: 85 to 94% | pest or weed control at 140 g/ha [2, 10]: 75 to 84% | pest or weed control at 35 g/ha [2, 11]: 75 to 84% | pest or weed control at 70 g/ha [2, 11]: 85 to 94% | pest or weed control at 140 g/ha [2, 11]: 85 to 94% | pest or weed control at 35 g/ha [2, 12]: 85 to 94% | pest or weed control at 70 g/ha [2, 12]: 95 to 100% | pest or weed control at 140 g/ha [2, 12]: 95 to 100% | pest or weed control at 35 g/ha [2, 13]: 0 to 29% | pest or weed control at 70 g/ha [2, 13]: 0 to 29% | pest or weed control at 140 g/ha [2, 13]: 0 to 29% | pest or weed control at 35 g/ha [2, 14]: 0 to 29% | pest or weed control at 70 g/ha [2, 14]: 0 to 29% | pest or weed control at 140 g/ha [2, 14]: 0 to 29%
